Test results published in the kinase profiling compilation of Christmann-Franck et al. (2016).

Tests used:
Assay in all cases: KINOMEscan competition binding
Conditions in all cases: compound 10.0 µM
PLK1 (human) = PLK1 (human) (UniProt P53350)
[1] = biological target: TYK2 JH1 catalytic (human) (UniProt P29597)
MKNK1 (human) = MKNK1 (human) (UniProt Q9BUB5)
CAMK2A (human) = CAMK2A (human) (UniProt Q9UQM7)
PRKACA (human) = PRKACA (human) (UniProt P17612)
RPS6KA1 KD2 (human) = RPS6KA1 KD2 (human) (UniProt Q15418)
BRSK1 (human) = BRSK1 (human) (UniProt Q8TDC3)
MAP3K11 (human) = MAP3K11 (human) (UniProt Q16584)
MAP3K10 (human) = MAP3K10 (human) (UniProt Q02779)
MAP2K2 (human) = MAP2K2 (human) (UniProt P36507)
MAP2K2 (human), sequence (P36507 whole entry, looked up): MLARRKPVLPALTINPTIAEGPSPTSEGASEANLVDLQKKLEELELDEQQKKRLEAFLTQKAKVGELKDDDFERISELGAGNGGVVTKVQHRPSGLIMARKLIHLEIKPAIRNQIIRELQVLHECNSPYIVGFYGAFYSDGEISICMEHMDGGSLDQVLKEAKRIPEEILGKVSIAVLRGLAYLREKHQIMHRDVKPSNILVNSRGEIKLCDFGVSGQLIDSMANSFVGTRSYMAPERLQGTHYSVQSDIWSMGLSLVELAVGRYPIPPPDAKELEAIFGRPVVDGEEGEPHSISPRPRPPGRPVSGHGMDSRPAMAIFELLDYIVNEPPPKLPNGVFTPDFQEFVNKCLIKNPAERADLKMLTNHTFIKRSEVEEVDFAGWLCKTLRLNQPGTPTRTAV

IKBKB (human) = IKBKB (human) (UniProt O14920)
DCLK2 (human) = DCLK2 (human) (UniProt Q8N568)
DCLK2 (human), sequence (Q8N568 whole entry, looked up): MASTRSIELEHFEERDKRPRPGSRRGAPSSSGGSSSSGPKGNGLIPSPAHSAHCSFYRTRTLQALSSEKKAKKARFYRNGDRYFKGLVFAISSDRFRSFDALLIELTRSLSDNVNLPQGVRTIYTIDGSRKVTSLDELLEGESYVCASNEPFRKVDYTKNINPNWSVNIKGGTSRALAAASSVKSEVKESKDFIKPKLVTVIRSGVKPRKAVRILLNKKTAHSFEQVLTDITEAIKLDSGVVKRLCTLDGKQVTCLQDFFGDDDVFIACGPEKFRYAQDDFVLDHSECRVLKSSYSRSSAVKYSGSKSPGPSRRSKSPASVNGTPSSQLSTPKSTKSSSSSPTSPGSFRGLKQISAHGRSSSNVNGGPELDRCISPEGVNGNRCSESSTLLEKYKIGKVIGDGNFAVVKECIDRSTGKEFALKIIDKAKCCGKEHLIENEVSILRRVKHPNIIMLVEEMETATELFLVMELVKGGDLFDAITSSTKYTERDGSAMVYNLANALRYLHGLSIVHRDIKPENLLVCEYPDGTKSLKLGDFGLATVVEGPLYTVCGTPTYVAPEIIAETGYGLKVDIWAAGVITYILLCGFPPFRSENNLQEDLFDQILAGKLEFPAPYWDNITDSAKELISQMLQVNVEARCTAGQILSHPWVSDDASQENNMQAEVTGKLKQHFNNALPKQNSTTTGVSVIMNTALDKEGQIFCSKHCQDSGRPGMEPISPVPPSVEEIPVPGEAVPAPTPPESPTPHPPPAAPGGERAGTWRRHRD

RIOK3 (human) = RIOK3 (human) (UniProt O14730)
NTRK2 (human) = NTRK2 (human) (UniProt Q16620)
CDK18 (human) = CDK18 (human) (UniProt Q07002)
MAPKAPK2 (human) = MAPKAPK2 (human) (UniProt P49137)
PDGFRB (human) = PDGFRB (human) (UniProt P09619)
CDC42BPG (human) = CDC42BPG (human) (UniProt Q6DT37)
[2] = biological target: JAK1 JH1 catalytic (human) (UniProt P23458)
PRKD2 (human) = PRKD2 (human) (UniProt Q9BZL6)
PRKD2 (human), sequence (Q9BZL6 whole entry, looked up): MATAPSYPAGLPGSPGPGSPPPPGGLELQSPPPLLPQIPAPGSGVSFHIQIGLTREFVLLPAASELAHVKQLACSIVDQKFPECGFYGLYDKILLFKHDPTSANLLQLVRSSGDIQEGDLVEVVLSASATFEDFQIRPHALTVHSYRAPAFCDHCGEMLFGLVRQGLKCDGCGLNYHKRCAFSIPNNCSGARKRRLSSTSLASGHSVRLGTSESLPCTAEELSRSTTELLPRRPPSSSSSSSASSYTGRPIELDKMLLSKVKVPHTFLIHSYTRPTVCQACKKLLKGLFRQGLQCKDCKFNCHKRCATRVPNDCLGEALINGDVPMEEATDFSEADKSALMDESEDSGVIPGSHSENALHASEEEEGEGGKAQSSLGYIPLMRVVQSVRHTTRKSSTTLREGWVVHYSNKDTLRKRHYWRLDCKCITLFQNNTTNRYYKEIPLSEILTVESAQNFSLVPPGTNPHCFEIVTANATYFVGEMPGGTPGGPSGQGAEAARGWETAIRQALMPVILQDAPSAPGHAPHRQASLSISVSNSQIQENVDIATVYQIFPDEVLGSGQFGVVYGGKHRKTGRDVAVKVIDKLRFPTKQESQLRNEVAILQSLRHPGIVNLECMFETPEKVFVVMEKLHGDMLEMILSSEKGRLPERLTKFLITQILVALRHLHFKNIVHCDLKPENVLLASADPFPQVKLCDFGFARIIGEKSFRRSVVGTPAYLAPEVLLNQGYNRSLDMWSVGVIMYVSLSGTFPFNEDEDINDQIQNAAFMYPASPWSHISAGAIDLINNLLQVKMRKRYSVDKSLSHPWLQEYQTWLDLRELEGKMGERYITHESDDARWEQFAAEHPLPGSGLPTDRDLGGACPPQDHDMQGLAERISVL

RPS6KA2 KD1 (human) = RPS6KA2 KD1 (human) (UniProt Q15349)
EPHB2 (human) = EPHB2 (human) (UniProt P29323)
STK33 (human) = STK33 (human) (UniProt Q9BYT3)
CHUK (human) = CHUK (human) (UniProt O15111)
CDK7 (human) = CDK7 (human) (UniProt P50613)
TAOK3 (human) = TAOK3 (human) (UniProt Q9H2K8)
STK17A (human) = STK17A (human) (UniProt Q9UEE5)
STK11 (human) = STK11 (human) (UniProt Q15831)
CSNK1G1 (human) = CSNK1G1 (human) (UniProt Q9HCP0)
CSNK1G1 (human), sequence (Q9HCP0 whole entry, looked up): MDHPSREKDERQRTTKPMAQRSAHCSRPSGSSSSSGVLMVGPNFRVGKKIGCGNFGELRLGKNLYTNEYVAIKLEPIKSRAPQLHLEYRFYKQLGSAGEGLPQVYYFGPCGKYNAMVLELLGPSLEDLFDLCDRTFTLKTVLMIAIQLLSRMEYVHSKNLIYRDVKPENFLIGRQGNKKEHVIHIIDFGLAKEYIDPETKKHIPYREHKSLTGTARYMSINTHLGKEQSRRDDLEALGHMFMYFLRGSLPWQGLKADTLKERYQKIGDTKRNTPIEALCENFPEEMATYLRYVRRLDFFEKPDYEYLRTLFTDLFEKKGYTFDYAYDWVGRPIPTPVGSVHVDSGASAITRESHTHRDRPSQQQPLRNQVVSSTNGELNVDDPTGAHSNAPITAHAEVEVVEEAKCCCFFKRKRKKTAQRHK

MAPK9 (human) = MAPK9 (human) (UniProt P45984)
MAPK4 (human) = MAPK4 (human) (UniProt P31152)
MAPK4 (human), sequence (P31152 whole entry, looked up): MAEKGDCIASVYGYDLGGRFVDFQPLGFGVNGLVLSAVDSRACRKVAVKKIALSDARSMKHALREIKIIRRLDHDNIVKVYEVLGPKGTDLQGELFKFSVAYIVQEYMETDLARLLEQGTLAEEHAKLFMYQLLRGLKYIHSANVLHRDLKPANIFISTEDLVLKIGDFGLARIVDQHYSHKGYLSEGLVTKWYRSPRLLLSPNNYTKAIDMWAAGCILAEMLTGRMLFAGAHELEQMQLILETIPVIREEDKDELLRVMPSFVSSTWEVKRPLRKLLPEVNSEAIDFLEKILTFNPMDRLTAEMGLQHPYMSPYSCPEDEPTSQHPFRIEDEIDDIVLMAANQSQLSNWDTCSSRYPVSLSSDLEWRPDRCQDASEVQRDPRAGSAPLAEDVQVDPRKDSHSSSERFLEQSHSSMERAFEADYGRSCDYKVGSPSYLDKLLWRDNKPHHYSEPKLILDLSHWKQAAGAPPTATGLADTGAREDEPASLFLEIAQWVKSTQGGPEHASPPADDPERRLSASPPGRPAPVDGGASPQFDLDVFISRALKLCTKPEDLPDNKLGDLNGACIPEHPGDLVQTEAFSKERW

TNK2 (human) = TNK2 (human) (UniProt Q07912)
TTK (human) = TTK (human) (UniProt P33981)
MYLK2 (human) = MYLK2 (human) (UniProt Q9H1R3)
FYN (human) = FYN (human) (UniProt P06241)
ACVRL1 (human) = ACVRL1 (human) (UniProt P37023)
WEE1 (human) = WEE1 (human) (UniProt P30291)
CDK15 (human) = CDK15 (human) (UniProt Q96Q40)
CDK15 (human), sequence (Q96Q40 whole entry, looked up): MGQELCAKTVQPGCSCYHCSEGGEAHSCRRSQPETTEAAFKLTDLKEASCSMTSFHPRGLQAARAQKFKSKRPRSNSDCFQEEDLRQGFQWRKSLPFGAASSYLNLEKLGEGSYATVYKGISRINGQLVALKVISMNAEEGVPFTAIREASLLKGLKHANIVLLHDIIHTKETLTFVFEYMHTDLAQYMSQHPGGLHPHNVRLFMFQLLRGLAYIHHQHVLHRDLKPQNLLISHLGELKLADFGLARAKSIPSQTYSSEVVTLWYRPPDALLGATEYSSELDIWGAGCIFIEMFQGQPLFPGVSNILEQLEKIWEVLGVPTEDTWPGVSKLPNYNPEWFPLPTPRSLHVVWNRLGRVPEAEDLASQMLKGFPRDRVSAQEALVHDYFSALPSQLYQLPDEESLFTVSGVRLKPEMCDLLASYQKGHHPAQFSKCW

SRPK1 (human) = SRPK1 (human) (UniProt Q96SB4)
SGK110 (human) = SGK110 (human) (UniProt P0C264)
SGK110 (human), sequence (P0C264 whole entry, looked up): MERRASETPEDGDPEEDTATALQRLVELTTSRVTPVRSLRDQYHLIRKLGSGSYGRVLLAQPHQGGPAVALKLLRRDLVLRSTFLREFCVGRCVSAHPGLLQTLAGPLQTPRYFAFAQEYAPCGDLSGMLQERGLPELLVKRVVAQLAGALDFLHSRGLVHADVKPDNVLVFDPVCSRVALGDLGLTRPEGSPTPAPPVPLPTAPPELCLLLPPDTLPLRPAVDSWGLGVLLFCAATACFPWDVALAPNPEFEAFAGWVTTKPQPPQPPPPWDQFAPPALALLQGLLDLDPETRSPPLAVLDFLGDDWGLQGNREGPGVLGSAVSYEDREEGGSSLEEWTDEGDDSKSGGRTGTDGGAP

TYK2 JH1 catalytic (human), sequence (P29597 whole entry, looked up): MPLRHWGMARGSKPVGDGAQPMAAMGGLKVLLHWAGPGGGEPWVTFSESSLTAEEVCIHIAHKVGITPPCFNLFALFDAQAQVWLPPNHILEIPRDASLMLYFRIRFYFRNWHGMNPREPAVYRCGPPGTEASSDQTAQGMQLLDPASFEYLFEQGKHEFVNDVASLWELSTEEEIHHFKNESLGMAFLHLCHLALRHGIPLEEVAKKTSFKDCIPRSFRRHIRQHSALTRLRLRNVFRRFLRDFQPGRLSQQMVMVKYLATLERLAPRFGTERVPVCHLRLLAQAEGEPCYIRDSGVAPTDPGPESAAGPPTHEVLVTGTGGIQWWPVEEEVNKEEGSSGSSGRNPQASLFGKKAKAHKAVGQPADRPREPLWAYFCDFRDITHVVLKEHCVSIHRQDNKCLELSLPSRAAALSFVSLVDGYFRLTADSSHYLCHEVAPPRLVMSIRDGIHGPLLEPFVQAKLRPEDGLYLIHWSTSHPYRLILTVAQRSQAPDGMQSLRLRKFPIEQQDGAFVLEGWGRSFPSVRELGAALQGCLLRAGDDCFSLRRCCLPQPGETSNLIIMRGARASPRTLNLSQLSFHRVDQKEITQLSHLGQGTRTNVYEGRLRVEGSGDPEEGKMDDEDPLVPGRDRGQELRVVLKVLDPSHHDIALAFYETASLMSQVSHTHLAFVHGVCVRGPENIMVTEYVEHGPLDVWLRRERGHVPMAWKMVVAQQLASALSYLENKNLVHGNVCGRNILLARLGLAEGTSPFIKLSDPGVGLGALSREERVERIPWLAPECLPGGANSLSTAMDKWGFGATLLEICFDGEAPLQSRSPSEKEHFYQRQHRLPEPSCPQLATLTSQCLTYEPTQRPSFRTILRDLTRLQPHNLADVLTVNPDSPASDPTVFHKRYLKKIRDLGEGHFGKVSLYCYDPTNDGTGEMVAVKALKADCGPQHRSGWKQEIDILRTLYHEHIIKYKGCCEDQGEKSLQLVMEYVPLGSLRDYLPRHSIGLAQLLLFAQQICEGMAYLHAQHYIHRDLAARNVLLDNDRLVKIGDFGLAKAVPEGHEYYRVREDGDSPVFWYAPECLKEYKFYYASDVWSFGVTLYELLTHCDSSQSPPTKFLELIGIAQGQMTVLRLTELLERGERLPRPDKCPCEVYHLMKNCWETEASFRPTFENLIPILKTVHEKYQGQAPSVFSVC

SMILES	kinase still bound, per cent of control (PLK1 (human))	kinase still bound, per cent of control [1]	kinase still bound, per cent of control (MKNK1 (human))	kinase still bound, per cent of control (CAMK2A (human))	kinase still bound, per cent of control (PRKACA (human))	kinase still bound, per cent of control (RPS6KA1 KD2 (human))	kinase still bound, per cent of control (BRSK1 (human))	kinase still bound, per cent of control (MAP3K11 (human))	kinase still bound, per cent of control (MAP3K10 (human))	kinase still bound, per cent of control (MAP2K2 (human))	kinase still bound, per cent of control (IKBKB (human))	kinase still bound, per cent of control (DCLK2 (human))	kinase still bound, per cent of control (RIOK3 (human))	kinase still bound, per cent of control (NTRK2 (human))	kinase still bound, per cent of control (CDK18 (human))	kinase still bound, per cent of control (MAPKAPK2 (human))	kinase still bound, per cent of control (PDGFRB (human))	kinase still bound, per cent of control (CDC42BPG (human))	kinase still bound, per cent of control [2]	kinase still bound, per cent of control (PRKD2 (human))	other results
CCC(=O)N1CCN(c2ccc(-n3c(=O)ccc4cnc5ccc(-c6cnc7ccccc7c6)cc5c43)cc2C(F)(F)F)CC1	85%	70%	44%	93%	79%	100%	78%	69%	99%	100%	61%	100%	90%	81%	97%	100%	24%	1.6%	82%	100%	kinase still bound, per cent of control (RPS6KA2 KD1 (human)): 100%; kinase still bound, per cent of control (EPHB2 (human)): 100%; kinase still bound, per cent of control (STK33 (human)): 90%; kinase still bound, per cent of control (CHUK (human)): 41%; kinase still bound, per cent of control (CDK7 (human)): 57%; kinase still bound, per cent of control (TAOK3 (human)): 76%; kinase still bound, per cent of control (STK17A (human)): 93%; kinase still bound, per cent of control (STK11 (human)): 100%; kinase still bound, per cent of control (CSNK1G1 (human)): 100%; kinase still bound, per cent of control (MAPK9 (human)): 40%; kinase still bound, per cent of control (MAPK4 (human)): 80%; kinase still bound, per cent of control (TNK2 (human)): 51%; kinase still bound, per cent of control (TTK (human)): 9.6%; kinase still bound, per cent of control (MYLK2 (human)): 40%; kinase still bound, per cent of control (FYN (human)): 49%; kinase still bound, per cent of control (ACVRL1 (human)): 83%; kinase still bound, per cent of control (WEE1 (human)): 42%; kinase still bound, per cent of control (CDK15 (human)): 88%; kinase still bound, per cent of control (SRPK1 (human)): 100%; kinase still bound, per cent of control (SGK110 (human)): 94%
O=C(NOC[C@H](O)CO)c1ccc(F)c(F)c1Nc1ccc(I)cc1F	72%	100%	100%	100%	72%	84%	100%	100%	100%	0.2%	79%	100%	100%	100%	100%	84%	66%	85%	78%	100%	kinase still bound, per cent of control (RPS6KA2 KD1 (human)): 100%; kinase still bound, per cent of control (EPHB2 (human)): 73%; kinase still bound, per cent of control (STK33 (human)): 79%; kinase still bound, per cent of control (CHUK (human)): 100%; kinase still bound, per cent of control (CDK7 (human)): 83%; kinase still bound, per cent of control (TAOK3 (human)): 89%; kinase still bound, per cent of control (STK17A (human)): 100%; kinase still bound, per cent of control (STK11 (human)): 83%; kinase still bound, per cent of control (CSNK1G1 (human)): 61%; kinase still bound, per cent of control (MAPK9 (human)): 88%; kinase still bound, per cent of control (MAPK4 (human)): 77%; kinase still bound, per cent of control (TNK2 (human)): 72%; kinase still bound, per cent of control (TTK (human)): 100%; kinase still bound, per cent of control (MYLK2 (human)): 100%; kinase still bound, per cent of control (FYN (human)): 64%; kinase still bound, per cent of control (ACVRL1 (human)): 100%; kinase still bound, per cent of control (WEE1 (human)): 67%; kinase still bound, per cent of control (CDK15 (human)): 78%; kinase still bound, per cent of control (SRPK1 (human)): 100%; kinase still bound, per cent of control (SGK110 (human)): 100%
